In patent EP4151214A1, “RIMEGEPANT FOR TREATMENT OF HUMAN CORONAVIRUS INFECTION” (priority 2021, dated 2023):

Assays:
[1] = biological target: nsp14-nsp10 protein complex (Severe acute respiratory syndrome coronavirus 2, UniProt P0DTD1); assay: nsp14 ExoN activity assay with nsp14-nsp10 complex (gel-based, 32P-labelled H4 RNA); assay type: biochemical, SARS-CoV-2
Protocol: (§1) Both RNAs were labelled at their 5' end with [^32P]-γ-ATP and T4 Polynucleotide Kinase (Ambion) in a standard reaction. MicroSpin G-50 columns (Cytiva) were used to remove excess [^32P]-γ-ATP. The synthetic RNAs were resuspended in 10 mM of Tris-HCI pH 8.0 and incubated 10 min at 80°C followed by 45 min at 37°C. • Different concentrations (µM) of rimegepant were incubated with 300 nM of nsp15 or with 40 nM-160 nM of nsp14-nsp10 proteins (7 minutes at room temperature), before initiating the in vitro assay through the addition of the P^32-RNA substrate (50 nM). The activity assays were performed in a final volume of 12 µl containing the activity buffer 50 mM HEPES pH 7.4, 1 mM DTT, 5 mM MgCl2 in case of nsp14-nsp10 complex, and 25 mM HEPES pH 7.4, 50 mM NaCl, 1 mM DTT, 10 mM NaHPO4, 5 mM MnCl2 for nsp15. The reactions were incubated at 37°C, and then aliquots of 4 µl were withdrawn at the time-points indicated in the respective images. […] All the experiments were performed at least in triplicate. • Inhibition profile curves were calculated by quantification of gel-based RNase assays. […] The inhibitory effect of rimegepant on SARS-CoV-2 multiplication in Vero E6 cells was evaluated. […] In addition, the viability of cells in culture was assessed by measuring intracellular ATP levels, using a luminescent assay as described above (CellTiter-Glo® Luminescent Cell Viability Assay). […]

[2] = cited from earlier work
[3] = biological target: SARS-CoV-2 nsp15 (Severe acute respiratory syndrome coronavirus 2, UniProt P0DTD1); assay: nsp15 endoribonuclease activity assay (gel-based, 32P-labelled 16-mer RNA); assay type: biochemical
Protocol: as §1

[4] = tested on: SARS-CoV-2; assay type: cell-based
[5] = cited from earlier work; remark: listed apart in the source
[6] = biological target: T1, CGRP receptor (Homo sapiens, UniProt O60894+Q16602); conditions: orally disintegrating tablet; cited from earlier work
T1 construct: host or cells: human patients (clinical use)
T1 sequence (Q16602 23-461): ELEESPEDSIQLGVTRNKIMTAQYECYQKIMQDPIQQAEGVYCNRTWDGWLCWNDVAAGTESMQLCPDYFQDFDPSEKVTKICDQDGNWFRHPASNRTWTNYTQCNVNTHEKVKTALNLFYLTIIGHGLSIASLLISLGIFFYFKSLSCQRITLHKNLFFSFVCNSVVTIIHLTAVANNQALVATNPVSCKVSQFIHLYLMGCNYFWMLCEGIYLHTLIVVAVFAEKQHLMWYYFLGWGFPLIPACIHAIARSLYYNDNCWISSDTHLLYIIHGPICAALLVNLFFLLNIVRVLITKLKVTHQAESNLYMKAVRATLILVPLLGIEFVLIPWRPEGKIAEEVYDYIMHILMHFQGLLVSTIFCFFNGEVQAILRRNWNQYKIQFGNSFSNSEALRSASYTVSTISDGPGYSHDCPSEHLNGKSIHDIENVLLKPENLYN
T1 sequence (O60894 27-148): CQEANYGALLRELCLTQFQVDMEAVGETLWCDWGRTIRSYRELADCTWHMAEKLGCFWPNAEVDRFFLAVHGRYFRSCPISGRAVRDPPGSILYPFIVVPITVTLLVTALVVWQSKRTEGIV

In the case of `N[C@@H]1c2cccnc2[C@H](OC(=O)N2CCC(n3c(=O)[nH]c4ncccc43)CC2)CC[C@H]1c1cccc(F)c1F` [rimegepant, Rimegepant], the IC50 [1] is listed as 1700 µM, the “plasma concentrations achieved relative to those at 75 mg” value ([2]; Phase I, without finding a maximum tolerated dose) is listed as 50 times and the “administered dose eliminated unchanged” value ([2]; in vivo) is listed as “Approximately 77%”. For the same compound, the bioavailability ([2]; in vivo) was 64%, the elimination half-life ([2]; in vivo) was “approximately 11 h” and the “major metabolites (i.e., > 10%) in plasma” value ([2]; in vivo) was “no major metabolites”. For the same compound, the “Cmax (maximum serum concentrations)” value ([2]; near the low predicted therapeutic dose of 75 mg, Phase I) was 784 ng/mL, the “Tmax (maximum plasma concentrations achieved at)” value ([2]; oral administration of the orally disintegrating tablet) was 1.5 h and the IC50 [3] was 98.95 ± 0.28 µM. The “duration of antiviral effect” value ([4]; 175 µM of rimegepant) was 72 h, the “rescue of Vero E6 cells infected with SARS-CoV-2” value ([4]; 175 µM, ATP levels) was “totally rescue the cells from the infection” and the “maximum tolerated dose (MTD)” value ([5]; Phase I clinical trials) was “not found”. The “well tolerated multiple doses” value ([5]; for 14 days, without significant adverse events (Tong et al 2013)) was “up to 600 mg”, the “well tolerated single doses” value ([5]; healthy subjects, compared to placebo (Tong et al 2013)) was “up to 1500 mg” and the “duration of effect after a single dose” value [6] was “up to 48 h”.
